Measured values: PubChem BioAssay (NCI)
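Five concentrations, 48 hours, 96-well plates. TGI is the concentration that stops growth completely.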

What was measured:
Assay in all cases: NCI tumour cell line growth inhibition, 48 h
DLD-1 colon = test system: DLD-1 colon
DMS 114 small cell lung = test system: DMS 114 small cell lung
DMS 273 small cell lung = test system: DMS 273 small cell lung
HOP-18 NSCLC = test system: HOP-18 NSCLC
LXFL 529 NSCLC = test system: LXFL 529 NSCLC
SNB-78 CNS = test system: SNB-78 CNS
P388 leukemia = test system: P388 leukemia
P388/ADR leukemia = test system: P388/ADR leukemia
SN12K1 renal = test system: SN12K1 renal
XF 498 CNS = test system: XF 498 CNS
RXF-631 renal = test system: RXF-631 renal

SMILES | TGI (DLD-1 colon) | TGI (DMS 114 small cell lung) | TGI (DMS 273 small cell lung) | TGI (HOP-18 NSCLC) | TGI (LXFL 529 NSCLC) | TGI (SNB-78 CNS) | TGI (P388 leukemia) | TGI (P388/ADR leukemia) | TGI (SN12K1 renal) | TGI (XF 498 CNS) | TGI (RXF-631 renal)
C=C1C(=O)C23C(O)CC4C5(C)CCCC4(C(O)OC5)C2C(OC(C)=O)CC1C3O (centres undefined) | 20.6 µM | 22.2 µM | 41.3 µM | 30.4 µM | 12.2 µM | 33.9 µM | – | – | – | – | –
O=C(O)CCCCCCCCC(=O)O | > 500 µM | > 500 µM | > 500 µM | > 500 µM | – | > 500 µM | > 281 µM | > 500 µM | > 500 µM | > 50 µM | –
O=C(NN1C(=O)CSC1c1cccc(F)c1)c1ccncc1 (centres undefined) | – | > 100 µM | > 100 µM | – | > 100 µM | > 100 µM | – | – | – | > 100 µM | > 100 µM
COc1cc(C2c3cc4c(cc3[C@@H](Nc3ccc5c(c3)OCO5)C3COC(=O)[C@H]23)OCO4)cc(OC)c1O (some centres undefined) | 5.45 µM | – | 1.4 µM | 11 µM | – | – | 0.393 µM | 0.71 µM | 5.82 µM | 16.7 µM | –
COc1ccc(/C=N/n2c(C)nc3c(sc(=S)n3-c3ccccc3)c2=O)cc1 | > 100 µM | – | – | > 100 µM | > 100 µM | – | – | – | – | – | –
O=C(O)/C=C\C(=O)Nc1ccc(S(=O)(=O)c2ccc(NC(=O)/C=C\C(=O)O)cc2)cc1 | > 100 µM | > 100 µM | – | – | > 100 µM | > 100 µM | – | – | – | > 100 µM | –
CSc1nc2c(ncn2C2OC(CO)C(O)C(O)C2O)c(=O)[nH]1 (centres undefined) | > 100 µM | > 100 µM | > 100 µM | > 100 µM | – | > 100 µM | > 100 µM | – | > 100 µM | > 100 µM | –
